Assay [1] deals with kainate site (non-NMDA receptor). Put plainly: kainate site (non-NMDA receptor) binding affinity (London and Coyle).
The target of assay [2] is AMPA receptors. The assay is described as follows: AMPA receptor binding affinity (Honore et al.).
Assay [3] deals with T1, glycine site of the NMDA receptor (Rattus norvegicus, UniProt P35439).
T1 construct: from tissue
The assay is described as follows: binding affinity for the glycine site of the NMDA receptor (Jones et al.).

This is an account of results in patent publication US6096744A, “Sulfonamide derivatives of substituted quinoxaline 2,3-diones as glutamate receptor antagonists” (Warner-Lambert Company, priority 1998, dated 2000).

One may read the IC50 as the concentration at which inhibition is half-maximal. Read a low IC50 as greater potency in that assay.

Take `Cc1c([N+](=O)[O-])cc2[nH]c(=O)c(=O)[nH]c2c1CN(C)S(C)(=O)=O` [Compound 1, N-Methyl-N-(6-methyl-7-nitro-2,3-dioxo-1,2,3,4-tetrahydro-quinoxalin-5-ylmethyl)-methanesulfonamide]: the “IC50 KA” value in assay [1] was 0.29 µM. For the same compound, the figures for the IC50 in assay [2] and in assay [3] were 0.21 µM and 0.1 µM, respectively.
For `Cc1ccc(S(=O)(=O)N(C)Cc2c(C)c([N+](=O)[O-])cc3[nH]c(=O)c(=O)[nH]c23)cc1` [Compound 2, 4,N-Dimethyl-N-(6-methyl-7-nitro-2,3-dioxo-1,2,3,4-tetrahydro-quinoxalin-5-ylmethyl)-benzenesulfonamide], in assay [1], the “IC50 KA” value came out at 2.63 µM. Besides, the IC50 in assay [2] was 0.56 µM; in assay [3], over 1 µM.
The matching figures for `Cc1c([N+](=O)[O-])cc2[nH]c(=O)c(=O)[nH]c2c1CN(C)S(=O)(=O)c1c(C(C)C)cc(C(C)C)cc1C(C)C` [Compound 3, 2,4,6-Triisopropyl-N-methyl-N-(6-methyl-7-nitro-2,3-dioxo-1,2,3,4-tetrahydro-quinoxalin-5-ylmethyl)-benzenesulfonamide]: 4.77 µM, 2.6 µM and over 1 µM.
As for `Cc1c([N+](=O)[O-])cc2[nH]c(=O)c(=O)[nH]c2c1CN(C)S(=O)(=O)c1ccc2ccccc2c1` [Compound 4, Naphthalene-2-sulfonic acid methyl-(6-methyl-7-nitro-2,3-dioxo-1,2,3,4-tetrahydro-quinoxalin-5-ylmethyl)-amide], the “IC50 KA” value in assay [1] came to 26.0 µM. Further, the IC50 in assay [2] was 18 µM; in assay [3], over 1 µM.
